Source: ChEMBL document CHEMBL1201862, “PubChem BioAssay data set” (2004)
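How tested: cells in 96-well plates exposed to compound for 48 hours at five concentrations. At the GI50, growth is halved.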 Calls of active or inactive are those of the source. No stated cut-off is given here; in the data, active = GI50 up to about 1.1 µM and inactive = higher.

What was measured:
Experiment in all cases: NCI tumour cell line growth inhibition, 48 h
ACHN = test system: ACHN
HCC 2998 = test system: HCC 2998
HCT-15 = test system: HCT-15
HOP-62 = test system: HOP-62
K562 = test system: K562
KM12 = test system: KM12
MCF7 = test system: MCF7
NCI-H226 = test system: NCI-H226
NCI-H23 = test system: NCI-H23
NCI-H522 = test system: NCI-H522
OVCAR-4 = test system: OVCAR-4
RXF 393 = test system: RXF 393
SF-539 = test system: SF-539
SN12C = test system: SN12C
SNB-19 = test system: SNB-19
T47D = test system: T47D
TK-10 = test system: TK-10
UACC-62 = test system: UACC-62
SF-268 = test system: SF-268
A498 = test system: A498

| Structure (SMILES) | GI50 (ACHN) | GI50 (HCC 2998) | GI50 (HCT-15) [µM] | GI50 (HOP-62) | GI50 (K562) | GI50 (KM12) | GI50 (MCF7) | GI50 (NCI-H226) | GI50 (NCI-H23) | GI50 (NCI-H522) | GI50 (OVCAR-4) | GI50 (RXF 393) | GI50 (SF-539) | GI50 (SN12C) | GI50 (SNB-19) | GI50 (T47D) | GI50 (TK-10) | GI50 (UACC-62) | GI50 (SF-268) | GI50 (A498) |
| --- | --- | --- | --- | --- | --- | --- | --- | --- | --- | --- | --- | --- | --- | --- | --- | --- | --- | --- | --- | --- |
| Clc1cc2nn(C3CCCCO3)nc2cc1Cl (stereo not given) | > 100 µM (inactive) | > 100 µM (inactive) | > 100 | > 100 µM (inactive) | > 100 µM (inactive) | > 100 µM (inactive) | > 100 µM (inactive) | > 100 µM (inactive) | > 100 µM (inactive) | > 100 µM (inactive) | > 100 µM (inactive) | > 100 µM (inactive) | > 100 µM (inactive) | > 100 µM (inactive) | > 100 µM (inactive) | > 100 µM (inactive) | > 100 µM (inactive) | > 100 µM (inactive) | – | – |
| COc1ccc(N[S+]([O-])c2ccc(Cl)cc2)cc1 (stereo not given) | 91 µM (inactive) | 30.7 µM (inactive) | 19.5 | 61.7 µM (inactive) | 34.4 µM (inactive) | 7.31 µM (inactive) | 32.6 µM (inactive) | 19.5 µM (inactive) | 50.5 µM (inactive) | 16.2 µM (inactive) | > 100 µM (inactive) | – | 11.9 µM (inactive) | > 100 µM (inactive) | 93.1 µM (inactive) | 10.1 µM (inactive) | > 100 µM (inactive) | 8.43 µM (inactive) | 4 µM (inactive) | – |
| COc1ccc(/N=N/c2c(C)c(C#N)c(=S)n(C3OC(CO)C(O)C(O)C3O)c2-c2ccccc2)cc1 (stereo not given) | 26 µM (inactive) | 88.5 µM (inactive) | 34 | 37.9 µM (inactive) | 19.3 µM (inactive) | 43.5 µM (inactive) | 38.3 µM (inactive) | – | 28.4 µM (inactive) | – | 31.9 µM (inactive) | 28 µM (inactive) | 42.7 µM (inactive) | 32.3 µM (inactive) | 41.3 µM (inactive) | 27.1 µM (inactive) | 39.5 µM (inactive) | 18.8 µM (inactive) | 44.9 µM (inactive) | 20.9 µM (inactive) |
| CC(=O)n1[nH]c(=O)n(-c2ccccc2)c1=O | > 100 µM (inactive) | > 100 µM (inactive) | > 100 | > 100 µM (inactive) | > 100 µM (inactive) | > 100 µM (inactive) | > 100 µM (inactive) | > 100 µM (inactive) | > 100 µM (inactive) | > 100 µM (inactive) | > 100 µM (inactive) | > 100 µM (inactive) | – | > 100 µM (inactive) | > 100 µM (inactive) | > 100 µM (inactive) | > 100 µM (inactive) | > 100 µM (inactive) | > 100 µM (inactive) | – |
| Cc1ccc(S(=O)(=O)NNCNC(=O)c2ccccc2)cc1 | > 100 µM (inactive) | > 100 µM (inactive) | 70.8 | > 100 µM (inactive) | 64.4 µM (inactive) | 85.1 µM (inactive) | > 100 µM (inactive) | > 100 µM (inactive) | > 100 µM (inactive) | > 100 µM (inactive) | > 100 µM (inactive) | > 100 µM (inactive) | > 100 µM (inactive) | > 100 µM (inactive) | > 100 µM (inactive) | 83.4 µM (inactive) | > 100 µM (inactive) | 71.6 µM (inactive) | > 100 µM (inactive) | – |
| O=c1cc(-c2ccccc2)[nH]c2ccc(N3CCCCC3)cc12 | 0.048 µM (active) | < 0.0224 µM (active) | 0.0329 | 0.0305 µM (active) | < 0.0129 µM (active) | 0.0142 µM (active) | 0.0428 µM (active) | 0.0193 µM (active) | 0.023 µM (active) | 0.0133 µM (active) | > 100 µM (inactive) | < 0.0191 µM (active) | < 0.0159 µM (active) | 0.0373 µM (active) | 0.0347 µM (active) | > 100 µM (inactive) | 0.998 µM (active) | < 0.01 µM (active) | 0.228 µM (active) | – |
